Laboratory results taken from US20180371044A1, “PEPTIDOMIMETIC MACROCYCLES” (Aileron Therapeutics, Inc., priority 2015, published 2018).
pEC50: −log10 of the molar value. Where a SMILES comes first, the peptide text is derived from it. Bridges are numbered along the chain shown (N, C = ends). [ ]: non-standard residue; d: D form. The star is where a group is joined. NMeY = CN[C@@H](Cc1ccc(O)cc1)C(=O)O; R8 = C=CCCCCCC[C@@](C)(N)C(=O)O; Cit = NC(=O)NCCC[C@H](N)C(=O)O; S5 = C=CCCC[C@](C)(N)C(=O)O; hSer = N[C@@H](CCO)C(=O)O; Nle = CCCC[C@H](N)C(=O)O; Hexanoyl = CCCCCC(=O)*; Aib = CC(C)(N)C(=O)O

These molecules were tested against T1, human GHRH receptor (hGHRHR) (Homo sapiens, UniProt Q02643) (assay: GHRHR agonism measured by cAMP (HTRF) in human 293 cells expressing hGHRHR). Details: 30 min at RT.
T1 construct: expressed in transfected cells; host or cells: Human 293 cells
T1 sequence (Q02643 23-423): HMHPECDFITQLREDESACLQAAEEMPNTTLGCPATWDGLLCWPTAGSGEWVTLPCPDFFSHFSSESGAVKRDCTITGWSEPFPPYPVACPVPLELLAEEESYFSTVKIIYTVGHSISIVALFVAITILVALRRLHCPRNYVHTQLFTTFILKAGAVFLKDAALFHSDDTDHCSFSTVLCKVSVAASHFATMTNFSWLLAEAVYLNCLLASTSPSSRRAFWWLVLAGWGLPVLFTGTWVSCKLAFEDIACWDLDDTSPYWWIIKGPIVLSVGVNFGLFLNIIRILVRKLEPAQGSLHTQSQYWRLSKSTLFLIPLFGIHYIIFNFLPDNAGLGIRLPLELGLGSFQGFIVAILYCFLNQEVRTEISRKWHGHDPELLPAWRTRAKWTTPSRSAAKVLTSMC
Assay type: cell-based
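Further: receptor expressed transiently or stably, cells stimulated in serum-free medium, EC50 from a non-linear dose-response fit, maximal response defined by reference GHRH stimulation.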

Row | Compound | pEC50
1 | CCCC[C@H](NC(=O)[C@@H](NC(=O)[C@H](CC(=O)O)NC(=O)[C@H](CCC(N)=O)NC(=O)[C@H](CC(C)C)NC(=O)[C@H](C)NC(=O)[C@H](CCCCN)NC(=O)[C@H](CCCNC(=N)N)NC(=O)[C@H](C)NC(=O)[C@H](CO)NC(=O)[C@H](CC(C)C)NC(=O)[C@H](CCC(N)=O)NC(=O)[C@H](C)NC(=O)[C@H](CC(C)C)NC(=O)[C@@H](NC(=O)[C@H](CCCCN)NC(=O)[C@H](CCCNC(=N)N)NC(=O)[C@H](Cc1ccc(O)cc1)NC(=O)[C@H](CO)NC(=O)[C@H](C)NC(=O)[C@@H](NC(=O)[C@H](Cc1ccccc1)NC(=O)[C@@H](NC(=O)[C@H](C)NC(=O)[C@H](CC(=O)O)NC(=O)[C@H](C)NC(=O)[C@H](Cc1ccc(O)cc1)NC)[C@@H](C)CC)[C@@H](C)O)C(C)C)[C@@H](C)CC)C(=O)N[C@@H](CO)C(=O)N[C@@H](CCCNC(N)=O)C(N)=O [SP-49] (H-[NMeY]ADAIFTASYRKVLAQLSARKALQDI[Nle]S[Cit]-NH2) | ≥ 9.00
2 | CCCC[C@H](NC(=O)[C@@H](NC(=O)[C@H](CC(=O)O)NC(=O)C(C)(C)NC(=O)[C@H](CC(C)C)NC(=O)[C@H](C)NC(=O)[C@H](CCCCN)NC(=O)[C@H](CCCNC(=N)N)NC(=O)[C@]1(C)CCCC=CCCCCCC[C@@](C)(NC(=O)[C@H](CCCNC(=N)N)NC(=O)[C@H](Cc2ccc(O)cc2)NC(=O)[C@H](CO)NC(=O)C(C)(C)NC(=O)[C@@H](NC(=O)[C@H](Cc2ccccc2)NC(=O)[C@@H](NC(=O)[C@H](C)NC(=O)[C@H](CC(=O)O)NC(=O)[C@H](C)NC(=O)[C@H](Cc2ccc(O)cc2)NC)[C@@H](C)CC)[C@@H](C)O)C(=O)N[C@@H](C(C)C)C(=O)N[C@@H](CC(C)C)C(=O)N[C@@H](C)C(=O)N[C@@H](CCC(N)=O)C(=O)N[C@@H](CC(C)C)C(=O)N[C@@H](CO)C(=O)N1)[C@@H](C)CC)C(=O)N[C@@H](CO)C(=O)N[C@@H](CCCNC(=N)N)C(N)=O [SP-67] (H-[NMeY]ADAIFT[Aib]SYR[R8]VLAQLS[S5]RKAL[Aib]DI[Nle]SR-NH2; staple 12-19) | 7.60 to 8.00
3 | CC[C@H](C)[C@H](NC(=O)[C@H](C)NC(=O)[C@H](CC(=O)O)NC(=O)[C@H](C)NC(=O)[C@H](Cc1ccc(O)cc1)NC)C(=O)N[C@@H](Cc1ccccc1)C(=O)N[C@H](C(=O)N[C@@H](C)C(=O)N[C@@H](CO)C(=O)N[C@@H](Cc1ccc(O)cc1)C(=O)N[C@@H](CCCNC(=N)N)C(=O)N[C@]1(C)CCCCCCC=CCCC[C@@](C)(C(=O)N[C@@H](CCCNC(=N)N)C(=O)N[C@@H](CCCCN)C(=O)N[C@@H](C)C(=O)N[C@@H](CC(C)C)C(=O)N[C@@H](CCC(N)=O)C(=O)N[C@@H](CC(=O)O)C(=O)N[C@H](C(=O)N[C@@H](CCOC)C(=O)N[C@@H](CO)C(=O)N[C@@H](CCCNC(=N)N)C(N)=O)[C@@H](C)CC)NC(=O)[C@H](CO)NC(=O)[C@H](CC(C)C)NC(=O)[C@H](CCC(N)=O)NC(=O)[C@H](C)NC(=O)[C@H](CC(C)C)NC(=O)[C@H](C(C)C)NC1=O)[C@@H](C)O [SP-68] (H-[NMeY]ADAIFTASYR[R8]VLAQLS[S5]RKALQDI[hSer](Me)SR-NH2; staple 12-19) | 7.60 to 8.00
4 | CCCC[C@H](NC(=O)[C@@H](NC(=O)[C@]1(C)CCCC=CCCC[C@](C)(NC(=O)[C@H](CCCNC(=N)N)NC(=O)[C@H](C)NC(=O)[C@H](CO)NC(=O)[C@H](CC(C)C)NC(=O)[C@H](CCC(N)=O)NC(=O)[C@H](C)NC(=O)[C@H](CC(C)C)NC(=O)[C@@H](NC(=O)[C@H](CCCCN)NC(=O)[C@H](CCCNC(=N)N)NC(=O)[C@H](Cc2ccc(O)cc2)NC(=O)[C@H](CO)NC(=O)[C@H](C)NC(=O)[C@@H](NC(=O)[C@H](Cc2ccccc2)NC(=O)[C@@H](NC(=O)[C@H](C)NC(=O)[C@H](CC(=O)O)NC(=O)[C@H](C)NC(=O)[C@H](Cc2ccc(O)cc2)NC)[C@@H](C)CC)[C@@H](C)O)C(C)C)C(=O)N[C@@H](C)C(=O)N[C@@H](CC(C)C)C(=O)N[C@@H](CCC(N)=O)C(=O)N1)[C@@H](C)CC)C(=O)N[C@@H](CO)C(=O)N[C@@H](CCCNC(=N)N)C(N)=O [SP-18] (H-[NMeY]ADAIFTASYRKVLAQLSAR[S5]ALQ[S5]I[Nle]SR-NH2; staple 21-25) | 7.60 to 8.00
5 | CCCC[C@H](NC(=O)[C@@H](NC(=O)[C@H](CC(=O)O)NC(=O)[C@H](CCC(N)=O)NC(=O)[C@H](CC(C)C)NC(=O)[C@H](C)NC(=O)[C@H](CCCCN)NC(=O)[C@H](CCCNC(=N)N)NC(=O)[C@H](C)NC(=O)[C@H](CO)NC(=O)[C@H](CC(C)C)NC(=O)[C@H](CCC(N)=O)NC(=O)[C@H](C)NC(=O)[C@H](CC(C)C)NC(=O)[C@@H](NC(=O)[C@H](CCCCN)NC(=O)[C@H](CCCNC(N)=O)NC(=O)[C@H](Cc1ccc(O)cc1)NC(=O)[C@H](CO)NC(=O)[C@H](C)NC(=O)[C@@H](NC(=O)[C@H](Cc1ccccc1)NC(=O)[C@@H](NC(=O)[C@H](C)NC(=O)[C@H](CC(=O)O)NC(=O)[C@H](C)NC(=O)[C@H](Cc1ccc(O)cc1)NC)[C@@H](C)CC)[C@@H](C)O)C(C)C)[C@@H](C)CC)C(=O)N[C@@H](CO)C(=O)N[C@@H](CCCNC(=N)N)C(N)=O [SP-47] (H-[NMeY]ADAIFTASY[Cit]KVLAQLSARKALQDI[Nle]SR-NH2) | ≥ 9.00
6 | CCCCCC(=O)N[C@@H](Cc1ccc(O)cc1)C(=O)N[C@@H](C)C(=O)N[C@@H](CC(=O)O)C(=O)N[C@@H](C)C(=O)N[C@H](C(=O)N[C@@H](Cc1ccccc1)C(=O)N[C@H](C(=O)N[C@@H](C)C(=O)N[C@@H](CO)C(=O)N[C@@H](Cc1ccc(O)cc1)C(=O)N[C@@H](CCCNC(=N)N)C(=O)N[C@@H](CCCCN)C(=O)N[C@H](C(=O)N[C@@H](CC(C)C)C(=O)N[C@@H](C)C(=O)N[C@@H](CCC(N)=O)C(=O)N[C@@H](CC(C)C)C(=O)N[C@@H](CO)C(=O)N[C@@H](C)C(=O)N[C@@H](CCCNC(=N)N)C(=O)N[C@@H](CCCCN)C(=O)N[C@@H](C)C(=O)N[C@@H](CC(C)C)C(=O)N[C@@H](CCC(N)=O)C(=O)N[C@@H](CC(=O)O)C(=O)N[C@H](C(=O)N[C@@H](CCCC)C(=O)N[C@@H](CO)C(=O)N[C@@H](CCCNC(=N)N)C(N)=O)[C@@H](C)CC)C(C)C)[C@@H](C)O)[C@@H](C)CC [SP-39] (Hexanoyl-YADAIFTASYRKVLAQLSARKALQDI[Nle]SR-NH2) | 8.00 to 9.00
7 | CCCC[C@H](NC(=O)[C@@H](NC(=O)[C@H](CC(=O)O)NC(=O)[C@H](CCC(N)=O)NC(=O)[C@H](CC(C)C)NC(=O)[C@H](C)NC(=O)[C@H](CCCCN)NC(=O)[C@H](CCCNC(=N)N)NC(=O)[C@]1(C)CCCC=CCCCCCC[C@@](C)(NC(=O)[C@H](CCCNC(=N)N)NC(=O)[C@H](Cc2ccc(O)cc2)NC(=O)[C@H](CO)NC(=O)[C@H](C)NC(=O)[C@@H](NC(=O)[C@H](Cc2ccccc2)NC(=O)[C@@H](NC(=O)[C@H](C)NC(=O)[C@H](CC(=O)O)NC(=O)[C@H](C)NC(=O)[C@H](Cc2ccc(O)cc2)NC)[C@@H](C)CC)[C@@H](C)O)C(=O)N[C@@H](C(C)C)C(=O)N[C@@H](CC(C)C)C(=O)N[C@@H](C)C(=O)N[C@@H](CCC(N)=O)C(=O)N[C@@H](CC(C)C)C(=O)N[C@@H](CO)C(=O)N1)[C@@H](C)CC)C(=O)N[C@@H](CO)C(=O)N[C@@H](CCCNC(=N)N)C(N)=O [SP-57] | 7.60 to 8.00
8 | CCCC[C@H](NC(=O)[C@@H](NC(=O)[C@H](CC(=O)O)NC(=O)[C@H](CCC(N)=O)NC(=O)[C@H](CC(C)C)NC(=O)[C@H](C)NC(=O)[C@H](CCCCN)NC(=O)[C@H](CCCNC(=N)N)NC(=O)[C@H](C)NC(=O)[C@H](CO)NC(=O)[C@H](CC(C)C)NC(=O)[C@H](CCC(N)=O)NC(=O)[C@]1(C)CCCC=CCCCCCC[C@@](C)(NC(=O)[C@@H](NC(=O)[C@H](Cc2ccccc2)NC(=O)[C@@H](NC(=O)[C@H](C)NC(=O)[C@H](CC(=O)O)NC(=O)[C@H](C)NC(=O)[C@H](Cc2ccc(O)cc2)NC)[C@@H](C)CC)[C@@H](C)O)C(=O)N[C@@H](CO)C(=O)N[C@@H](Cc2ccc(O)cc2)C(=O)N[C@@H](CCCNC(=N)N)C(=O)N[C@@H](CCCCN)C(=O)N[C@@H](C(C)C)C(=O)N[C@@H](CC(C)C)C(=O)N1)[C@@H](C)CC)C(=O)N[C@@H](CO)C(=O)N[C@@H](CCCNC(=N)N)C(N)=O [SP-25] (H-[NMeY]ADAIFT[R8]SYRKVL[S5]QLSARKALQDI[Nle]SR-NH2; staple 8-15) | 8.00 to 9.00
9 | CCCC[C@H](NC(=O)[C@@H](NC(=O)[C@H](CC(=O)O)NC(=O)C(C)(C)NC(=O)[C@H](CC(C)C)NC(=O)[C@H](C)NC(=O)[C@H](CCCCN)NC(=O)[C@H](CCCNC(=N)N)NC(=O)[C@H](C)NC(=O)[C@H](CO)NC(=O)[C@H](CC(C)C)NC(=O)[C@H](CCC(N)=O)NC(=O)[C@H](C)NC(=O)[C@H](CC(C)C)NC(=O)[C@@H](NC(=O)[C@H](CCCCN)NC(=O)[C@H](CCCNC(=N)N)NC(=O)[C@H](Cc1ccc(O)cc1)NC(=O)[C@H](CO)NC(=O)C(C)(C)NC(=O)[C@@H](NC(=O)[C@H](Cc1ccccc1)NC(=O)[C@@H](NC(=O)[C@H](C)NC(=O)[C@H](CC(=O)O)NC(=O)[C@H](C)NC(=O)[C@H](Cc1ccc(O)cc1)NC)[C@@H](C)CC)[C@@H](C)O)C(C)C)[C@@H](C)CC)C(=O)N[C@@H](CO)C(=O)N[C@@H](CCCNC(=N)N)C(N)=O [SP-53] (H-[NMeY]ADAIFT[Aib]SYRKVLAQLSARKAL[Aib]DI[Nle]SR-NH2) | 8.00 to 9.00
